Data as given in patent US8765773B2, “Substituted hydroxamic acids and uses thereof” (Millennium Pharmaceuticals, Inc., priority 2010, dated 2014).

Target: T1, purified human HDAC6 (Homo sapiens, UniProt Q9UBN7)
T1 construct: purchased BPS Bioscience 5006
T1 sequence (Q9UBN7 1-1215): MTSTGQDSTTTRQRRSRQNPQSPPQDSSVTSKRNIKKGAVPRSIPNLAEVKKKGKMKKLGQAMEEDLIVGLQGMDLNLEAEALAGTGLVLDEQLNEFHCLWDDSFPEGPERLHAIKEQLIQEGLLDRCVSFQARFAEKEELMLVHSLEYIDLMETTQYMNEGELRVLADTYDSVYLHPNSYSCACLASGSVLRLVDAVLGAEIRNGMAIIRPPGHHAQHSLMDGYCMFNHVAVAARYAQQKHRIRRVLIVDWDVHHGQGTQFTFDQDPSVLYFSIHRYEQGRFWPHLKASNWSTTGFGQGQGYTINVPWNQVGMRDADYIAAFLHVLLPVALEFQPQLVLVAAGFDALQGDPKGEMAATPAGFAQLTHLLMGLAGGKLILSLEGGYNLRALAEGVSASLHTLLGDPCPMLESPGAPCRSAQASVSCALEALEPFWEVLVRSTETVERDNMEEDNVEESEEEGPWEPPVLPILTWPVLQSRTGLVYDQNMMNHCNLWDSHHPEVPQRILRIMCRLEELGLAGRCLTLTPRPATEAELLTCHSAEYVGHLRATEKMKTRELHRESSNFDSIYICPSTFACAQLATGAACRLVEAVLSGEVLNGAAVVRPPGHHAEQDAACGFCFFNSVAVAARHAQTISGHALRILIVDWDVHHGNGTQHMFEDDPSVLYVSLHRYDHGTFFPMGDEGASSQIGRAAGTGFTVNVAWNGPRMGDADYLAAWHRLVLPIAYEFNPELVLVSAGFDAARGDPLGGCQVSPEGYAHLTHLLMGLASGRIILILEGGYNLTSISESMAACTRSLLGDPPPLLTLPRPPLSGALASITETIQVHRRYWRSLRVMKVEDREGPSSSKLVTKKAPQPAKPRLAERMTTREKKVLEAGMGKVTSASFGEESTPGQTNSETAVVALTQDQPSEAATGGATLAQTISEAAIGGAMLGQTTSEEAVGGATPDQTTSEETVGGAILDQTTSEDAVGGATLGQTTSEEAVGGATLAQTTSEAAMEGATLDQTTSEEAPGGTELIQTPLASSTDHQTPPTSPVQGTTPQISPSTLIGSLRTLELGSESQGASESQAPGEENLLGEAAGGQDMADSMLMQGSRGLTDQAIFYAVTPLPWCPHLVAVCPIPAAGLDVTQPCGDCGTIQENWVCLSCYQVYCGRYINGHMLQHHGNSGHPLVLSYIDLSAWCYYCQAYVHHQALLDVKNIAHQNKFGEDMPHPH
Experiment: HDAC6 Enzyme Assay
Type: biochemical
Conditions: compound concentration 0.37 μM, read-out: Percent Inhibition
How it was run: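 Purified human HDAC6 incubated 1 h at 30° C with Ac-Arg-Gly-Lys(Ac)-AMC peptide plus compound or DMSO; stopped with trichostatin A. Deacetylated product trypsin-digested, released AMC read by fluorescence (Ex 340/Em 460 nm). Percent inhibition at one concentration or IC50 from curves relative to DMSO controls.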

| inhibition at 0.37 µM | Structure (SMILES) |
| --- | --- |
| 72.6% | O=C(NO)c1ccc2c(=O)n(Cc3ccc(C(F)(F)F)cc3)c(-c3ccc4ccccc4c3)nc2c1 [Compound I-85, N-hydroxy-2-(2-naphthyl)-4-oxo-3-[4-(trifluoromethyl)benzyl]-3,4-dihydroquinazoline-7-carboxamide] |
| 88.2% | O=C(NO)c1ccc2ncn(CCc3cccc(N4CCOCC4)c3)c(=O)c2c1 [Compound I-125, N-hydroxy-3-[2-(3-morpholin-4-ylphenyl)ethyl]-4-oxo-3,4-dihydroquinazoline-6-carboxamide] |
| 90.6% | CCC(C)c1nc2cc(C(=O)NO)ccc2c(=O)n1Cc1ccc(C(F)(F)F)cc1 (stereo not shown) [Compound I-100, 2-sec-butyl-N-hydroxy-4-oxo-3-[4-(trifluoromethyl)benzyl]-3,4-dihydroquinazoline-7-carboxamide] |
| 91.3% | O=C(NO)c1ccc2ccn(CCC3CCNCC3)c(=O)c2c1 [Compound I-343, N-hydroxy-1-oxo-2-(2-piperidin-4-ylethyl)-1,2-dihydroisoquinoline-7-carboxamide] |
| 51.1% | NCc1cn(Cc2ccccc2)c(=O)c2cc(C(=O)NO)ccc12 [Compound I-407, 4-(aminomethyl)-2-benzyl-N-hydroxy-1-oxo-1,2-dihydroisoquinoline-7-carboxamide] |
| 98.3% | O=C(NO)c1ccc2ncn(CCc3cccc(-c4ccncc4)c3)c(=O)c2c1 [Compound I-220, N-hydroxy-4-oxo-3-[2-(3-pyridin-4-ylphenyl)ethyl]-3,4-dihydroquinazoline-6-carboxamide] |
| 76.2% | O=C(NO)c1ccc2ncn(CCc3cccc(-c4cccc(OC(F)(F)F)c4)c3)c(=O)c2c1 [Compound I-312, N-hydroxy-4-oxo-3-{2-[3′-(trifluoromethoxy)biphenyl-3-yl]ethyl}-3,4-dihydroquinazoline-6-carboxamide] |
| 100% | CC1(C(=O)Nc2cccc(Cn3ccc4ccc(C(=O)NO)cc4c3=O)c2)CCNCC1 [Compound I-215, N-hydroxy-2-(3-{[(4-methylpiperidin-4-yl)carbonyl]amino}benzyl)-1-oxo-1,2-dihydroisoquinoline-7-carboxamide] |
| 93.5% | O=C(NO)c1ccc2ncn(CCc3cccc(-c4ccccc4Cl)c3)c(=O)c2c1 [Compound I-314, 3-[2-(2′-chlorobiphenyl-3-yl)ethyl]-N-hydroxy-4-oxo-3,4-dihydroquinazoline-6-carboxamide] |
| 95.4% | O=C(NO)c1ccc2c(=O)[nH]c(-c3ccccc3Cl)nc2c1 [Compound I-414, 2-(2-chlorophenyl)-N-hydroxy-4-oxo-3,4-dihydroquinazoline-7-carboxamide] |

Same assay, conditions: compound concentration 0.412 μM, read-out: Percent Inhibition

| inhibition at 0.412 µM | Structure (SMILES) |
| --- | --- |
| 78.5% | Cn1c(NCc2ccc(Cl)cc2)nc2cc(C(=O)NO)ccc2c1=O [Compound I-139, 2-[(4-chlorobenzyl)amino]-N-hydroxy-3-methyl-4-oxo-3,4-dihydroquinazoline-7-carboxamide] |
| 96.4% | O=C(NO)c1ccc2c(=O)n(CCOc3ccccc3)cnc2c1 [Compound I-22, N-hydroxy-4-oxo-3-(2-phenoxyethyl)-3,4-dihydroquinazoline-7-carboxamide] |
| 96.6% | O=C(NO)c1ccc2ccn(CCc3cccc4ccccc34)c(=O)c2c1 [Compound I-251, N-hydroxy-2-[2-(1-naphthyl)ethyl]-1-oxo-1,2-dihydroisoquinoline-7-carboxamide] |
| 95.1% | O=C(NO)c1ccc2ccn(Cc3c(F)cccc3Cl)c(=O)c2c1 [Compound I-187, 2-(2-chloro-6-fluorobenzyl)-N-hydroxy-1-oxo-1,2-dihydroisoquinoline-7-carboxamide] |
| 97.5% | O=C(NO)c1ccc2ccn(Cc3nc4ccccc4s3)c(=O)c2c1 [Compound I-272, 2-(1,3-benzothiazol-2-ylmethyl)-N-hydroxy-1-oxo-1,2-dihydroisoquinoline-7-carboxamide] |
| 94.6% | O=C(NO)c1ccc2ccn(Cc3ccc(C(F)(F)F)cc3)c(=O)c2c1 [Compound I-75, N-hydroxy-1-oxo-2-[4-(trifluoromethyl)benzyl]-1,2-dihydroisoquinoline-7-carboxamide] |
| 95.7% | O=C(NO)c1ccc2ccn(Cc3cccc(C(F)(F)F)c3)c(=O)c2c1 [Compound I-61, N-hydroxy-1-oxo-2-[3-(trifluoromethyl)benzyl]-1,2-dihydroisoquinoline-7-carboxamide] |
| 65.8% | CC(C)c1nc2cc(C(=O)NO)ccc2c(=O)[nH]1 [Compound I-214, N-hydroxy-2-isopropyl-4-oxo-3,4-dihydroquinazoline-7-carboxamide] |
| 67% | O=C(NO)c1ccc2ccn(CCOc3ccc(C45CC6CC(CC(C6)C4)C5)cc3)c(=O)c2c1 [Compound I-161, 2-(2-{4-[1-adamantyl]phenoxy}ethyl)-N-hydroxy-1-oxo-1,2-dihydroisoquinoline-7-carboxamide] |
